Columns and labels:
[1] = system: pigweed; test: Test B pre-/postemergence herbicide test; assay type: in vivo, Amaranthus retroflexus; conditions: for Pigweed plant response rating: postemergence
Outline: (§1)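 Test chemicals in a non-phytotoxic solvent mixture with surfactant were applied preemergence to seeded species and postemergence to plants 2-18 cm tall (1- to 4-leaf stage); rice and barnyardgrass were also tested in a flooded paddy at the 2-leaf stage. Visual rating versus controls after 13-15 days in greenhouse, scale 0 (no effect) to 100 (complete control).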

[2] = system: blackgrass; test: Test B postemergence herbicide test; assay type: in vivo, Alopecurus myosuroides; conditions: postemergence, visual rating, scale 0 (no effect) to 100 (complete control)
Outline: (§2)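 Scale 0–100: zero equals no visible effect, 100 complete control, judged by eye relative to controls. Timing: 13 to 15 days in greenhouse post-treatment. Growth stage at spraying: two leaves (paddy) or one to four leaves, 2–18 cm (postemergence).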

[3] = system: rice; test: Test B pre-/postemergence herbicide test; assay type: in vivo, Oryza sativa; conditions: 0 = no effect, 100 = complete control, preemergence
Outline: as §1

[4] = system: barnyardgrass; test: Test B pre-/postemergence herbicide test; assay type: in vivo, Echinochloa crus-galli; conditions: for Barnyardgrass plant response rating: postemergence, scale 0 (no effect) to 100 (complete control)
Outline: (§3)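 Formulation: non-phytotoxic solvent mix with surfactant. Timing: preemergence on seed and postemergence on 2–18 cm plants, applied concurrently. Readout after 13–15 d greenhouse: visual 0–100 control rating against controls.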

[5] = system: barnyardgrass; test: Test B flooded paddy test; assay type: in vivo, Echinochloa crus-galli; conditions: 1000 g ai/ha, scale 0 to 100 (0 no effect, 100 complete control)
Outline: as §2

[6] = system: corn; test: Test B pre-/postemergence herbicide test; assay type: in vivo, Zea mays; conditions: for Corn plant response rating: postemergence
Outline: as §1

[7] = system: Surinam grass; test: Test B pre-/postemergence herbicide test; assay type: in vivo, Urochloa decumbens; conditions: for Surinam Grass plant response rating: postemergence
Outline: as §1

[8] = system: ducksalad; test: Test B flooded paddy test; assay type: in vivo, Heteranthera limosa; conditions: 1000 g ai/ha, scale 0 to 100 (0 no effect, 100 complete control)
Outline: as §2

[9] = system: wheat; test: Test B postemergence herbicide test; assay type: in vivo, Triticum aestivum; design: key to Wheat plant response rating: 0 = no effect, 100 = complete control; conditions: postemergence
Outline: (§4)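 Postemergence plants were sprayed with formulated test chemicals at 2 to 18 cm height (1- to 4-leaf stage); paddy species were grown to the 2-leaf stage. After 13 to 15 days in a greenhouse, injury was rated visually against untreated controls on a 0–100 scale (0 = no effect, 100 = complete control).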

[10] = system: morningglory; test: Test B pre-/postemergence herbicide test; assay type: in vivo, Ipomoea coccinea; conditions: for Morningglory plant response rating: postemergence
Outline: as §3

[11] = system: rice; test: Test C flooded paddy test; assay type: in vivo, Oryza sativa
Outline: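 Injury scored visually against controls on a 0 (no effect) to 100 (complete control) scale, 12 to 14 days after treatment in greenhouse. Flooded paddy plants treated at 2-leaf stage; postemergence plants at 1- to 4-leaf stage, 2 to 18 cm tall.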

[12] = system: velvetleaf; test: Test B pre-/postemergence herbicide test; assay type: in vivo, Abutilon theophrasti; conditions: for Velvetleaf plant response rating: postemergence
Outline: as §1

[13] = system: wild oat; test: Test B postemergence herbicide test; assay type: in vivo, Avena fatua; conditions: postemergence
Outline: as §4

[14] = system: rice; test: Test B flooded paddy test; assay type: in vivo, Oryza sativa; conditions: 1000 g ai/ha, scale 0 to 100 (0 no effect, 100 complete control)
Outline: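 Paddy species grown to the 2-leaf stage under flooding; blackgrass sprayed postemergence at 2–18 cm (1- to 4-leaf stage). Plants kept in a greenhouse for 13 to 15 days, then visually rated against controls on 0 (no effect) to 100 (complete control).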

[15] = system: cocklebur; test: Test B pre-/postemergence herbicide test; assay type: in vivo, Xanthium strumarium; conditions: for Cocklebur plant response rating: postemergence, scale 0 (no effect) to 100 (complete control)
Outline: as §3

[16] = system: barnyardgrass; test: Test C flooded paddy test; assay type: in vivo, Echinochloa crus-galli
Outline: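 Postemergence sprays applied to plants 2 to 18 cm tall (1- to 4-leaf stage); paddy species grown to 2-leaf stage under flooding. After 12 to 14 days in greenhouse, visual rating versus untreated controls on 0–100 scale (0 no effect, 100 complete control).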

[17] = system: giant foxtail; test: Test B pre-/postemergence herbicide test; assay type: in vivo, Setaria faberi; conditions: for Foxtail, Giant plant response rating: postemergence
Outline: as §1

[18] = system: large crabgrass; test: Test B pre-/postemergence herbicide test; assay type: in vivo, Digitaria sanguinalis; conditions: for Crabgrass, Large plant response rating: postemergence
Outline: as §1

[19] = system: smallflower umbrella sedge; test: Test C flooded paddy test; assay type: in vivo, Cyperus difformis
[20] = system: lambsquarters; test: Test B pre-/postemergence herbicide test; assay type: in vivo, Chenopodium album; conditions: for Lambsquarters plant response rating: postemergence
Outline: as §1

[21] = system: ducksalad; test: Test C flooded paddy test; assay type: in vivo, Heteranthera limosa
[22] = system: small flower umbrella sedge; test: Test B flooded paddy test; assay type: in vivo, Cyperus difformis; conditions: 1000 g ai/ha, scale 0 to 100 (0 no effect, 100 complete control)
Outline: as §2

[23] = 125 g ai/ha, 0 = no effect, 100 = complete control, preemergence
[24] = 500 g ai/ha, visual rating, 0 = no effect, 100 = complete control, preemergence
[25] = 125 g ai/ha, visual rating, scale 0 (no effect) to 100 (complete control)
[26] = 500 g ai/ha, scale 0 to 100, 0 is no effect, 100 is complete control
[27] = 62 g ai/ha, scale 0 to 100 (0 no effect, 100 complete control)
[28] = 125 g ai/ha, scale 0 to 100 (0 no effect, 100 complete control)
[29] = 250 g ai/ha, scale of 0 to 100, 0 is no effect, 100 is complete control
[30] = 500 g ai/ha, visual rating after 12 to 14 days, scale 0 to 100 (0 no effect, 100 complete control)

CCn1nc(C(C)(C)C)cc1C(=O)Nc1cc(C(=O)N2CCOCC2)ccc1F [Compound 243]
Pigweed plant response rating (0 to 100 scale) [1, 23]: 60
Plant response rating, Pigweed [1, 24]: 100
Pigweed plant response rating [1, 25]: 20
Pigweed plant response rating [1, 26]: 60
Blackgrass plant response rating ([2]; 125 g ai/ha): 0
Blackgrass plant response rating ([2]; 500 g ai/ha): 0
Rice plant response rating (0 to 100 scale) ([3]; 125 g ai/ha): 20
Plant response rating, Rice ([3]; 500 g ai/ha, visual rating): 80
Barnyardgrass plant response rating (0 to 100 scale) [4, 23]: 70
Plant response rating, Barnyardgrass [4, 24]: 90
Barnyardgrass plant response rating ([4]; 125 g ai/ha, visual rating): 10
Barnyardgrass plant response rating ([4]; 500 g ai/ha, visual rating): 20
Barnyardgrass plant response rating [5]: 90
Corn plant response rating (0 to 100 scale) [6, 23]: 20
Plant response rating, Corn [6, 24]: 50
Corn plant response rating [6, 25]: 10
Corn plant response rating [6, 26]: 10
Surinam Grass plant response rating (0 to 100 scale) [7, 23]: 60
Plant response rating, Surinam Grass [7, 24]: 80
Surinam Grass plant response rating [7, 25]: 10
Surinam Grass plant response rating [7, 26]: 20
Ducksalad plant response rating [8]: 90
Wheat plant response rating [9, 25]: 0
Wheat plant response rating [9, 26]: 0
Morningglory plant response rating (0 to 100 scale) [10, 23]: 0
Plant response rating, Morningglory [10, 24]: 0
Morningglory plant response rating [10, 25]: 0
Morningglory plant response rating [10, 26]: 20
Rice plant response rating [11, 27]: 15
Rice plant response rating [11, 28]: 75
Rice plant response rating [11, 29]: 80
Plant response rating, Rice [11, 30]: 90
Velvetleaf plant response rating (0 to 100 scale) [12, 23]: 40
Plant response rating, Velvetleaf [12, 24]: 100
Velvetleaf plant response rating [12, 25]: 50
Velvetleaf plant response rating [12, 26]: 60
Oat, Wild plant response rating [13, 25]: 0
Oat, Wild plant response rating [13, 26]: 20
Rice plant response rating [14]: 90
Cocklebur plant response rating (0 to 100 scale) [15, 23]: 0
Plant response rating, Cocklebur [15, 24]: 20
Cocklebur plant response rating ([15]; 125 g ai/ha, visual rating): 10
Cocklebur plant response rating ([15]; 500 g ai/ha, visual rating): 30
Barnyardgrass plant response rating [16, 27]: 0
Barnyardgrass plant response rating [16, 28]: 65
Barnyardgrass plant response rating [16, 29]: 75
Plant response rating, Barnyardgrass [16, 30]: 85
Foxtail, Giant plant response rating (0 to 100 scale) [17, 23]: 50
Plant response rating, Foxtail, Giant [17, 24]: 80
Foxtail, Giant plant response rating [17, 25]: 10
Foxtail, Giant plant response rating [17, 26]: 20
Crabgrass, Large plant response rating (0 to 100 scale) [18, 23]: 60
Plant response rating, Crabgrass, Large [18, 24]: 100
Crabgrass, Large plant response rating [18, 25]: 10
Crabgrass, Large plant response rating [18, 26]: 10
Sedge, Umbrella plant response rating [19, 27]: 75
Sedge, Umbrella plant response rating [19, 28]: 80
Sedge, Umbrella plant response rating [19, 29]: 80
Plant response rating, Sedge, Umbrella [19, 30]: 80
Lambsquarters plant response rating (0 to 100 scale) [20, 23]: 90
Plant response rating, Lambsquarters [20, 24]: 100
Lambsquarters plant response rating [20, 25]: 70
Lambsquarters plant response rating [20, 26]: 80
Ducksalad plant response rating [21, 27]: 75
Ducksalad plant response rating [21, 28]: 85
Ducksalad plant response rating [21, 29]: 90
Plant response rating, Ducksalad [21, 30]: 90
Sedge, Umbrella plant response rating [22]: 80
